Test results published in ChEMBL document CHEMBL1131280, “(2S,4S)-amino-4-(2,2-diphenylethyl)pentanedioic acid selective group 2 metabotropic glutamate receptor antagonist” (Bioorg Med Chem Lett, 1998).

Assays:
[1] = Inhibitory activity towards group 2 metabotropic glutamate receptor by displacement of ACPD-sensitive [3H]- glutamate in rat forebrain membrane; assay type: cell membranes
[2] = target: Glutamate receptor ionotropic, kainate 3 (Rattus norvegicus, UniProt P42264); test: Binding affinity against Ionotropic glutamate receptor using ACPD sensitive [3H]- glutamate displacement from rat forebrain preparations
[3] = target: Glutamate receptor ionotropic, kainate; test: Binding affinity against Ionotropic glutamate receptor using [3H]-Kainate displacement from rat forebrain preparations
[4] = target: Glutamate receptor ionotropic, AMPA (Rattus norvegicus, UniProt P19490+P19491+P19492+P19493); test: Binding affinity against Ionotropic glutamate receptor using [3H]-AMPA displacement from rat forebrain preparations
[5] = target: Metabotropic glutamate receptor 3 (Homo sapiens, UniProt Q14832); test: Tested for […] in non-neuronal cells (RGT) expressing human Metabotropic glutamate receptor 3 by measuring ACPD (3 uM) induced inhibition of forskolin (15 uM)-stimulated cAMP formation; assay type: functional, cell-based
[6] = target: Metabotropic glutamate receptor 1 (Homo sapiens, UniProt Q13255); test: Tested for […] in non-neuronal cells (RGT) expressing human Metabotropic glutamate receptor 1 by measuring ACPD (100 uM)-stimulated phosphoinositide hydrolysis; assay type: functional, cell-based
[7] = target: Metabotropic glutamate receptor 4 (Homo sapiens, UniProt Q14833); test: Tested for […] in non-neuronal cells (RGT) expressing human Metabotropic glutamate receptor 4 by measuring L-AP4 (3 uM) induced inhibition of forskolin (15 uM)-stimulated cAMP formation; assay type: functional, cell-based
[8] = target: Metabotropic glutamate receptor 5 (Homo sapiens, UniProt P41594); test: Tested for […] in non-neuronal cells (RGT) expressing human Metabotropic glutamate receptor 5 by measuring ACPD (100 uM)-stimulated phosphoinositide hydrolysis; assay type: functional, cell-based
[9] = target: Metabotropic glutamate receptor 2 (Homo sapiens, UniProt Q14416); test: Tested for […] in non-neuronal cells (RGT) expressing human Metabotropic glutamate receptor 2 by measuring ACPD (3 uM) induced inhibition of forskolin (15 uM)-stimulated cAMP formation; assay type: functional, cell-based
[10] = target: Metabotropic glutamate receptor 7 (Homo sapiens, UniProt Q14831); test: Tested for […] in non-neuronal cells (RGT) expressing human mGlu7a receptor by measuring L-AP4 (1000 uM of forskolin (15 uM)-stimulated cAMP formation; assay type: functional, cell-based
[11] = target: Metabotropic glutamate receptor 8 (Homo sapiens, UniProt O00222); test: Tested for […] in non-neuronal cells (RGT) expressing human Metabotropic glutamate receptor 8 by measuring L-AP4 (0.3 uM of forskolin) (15 uM)-stimulated cAMP formation; assay type: functional, cell-based

Sequence of Glutamate receptor ionotropic, kainate 3 (P42264 whole entry): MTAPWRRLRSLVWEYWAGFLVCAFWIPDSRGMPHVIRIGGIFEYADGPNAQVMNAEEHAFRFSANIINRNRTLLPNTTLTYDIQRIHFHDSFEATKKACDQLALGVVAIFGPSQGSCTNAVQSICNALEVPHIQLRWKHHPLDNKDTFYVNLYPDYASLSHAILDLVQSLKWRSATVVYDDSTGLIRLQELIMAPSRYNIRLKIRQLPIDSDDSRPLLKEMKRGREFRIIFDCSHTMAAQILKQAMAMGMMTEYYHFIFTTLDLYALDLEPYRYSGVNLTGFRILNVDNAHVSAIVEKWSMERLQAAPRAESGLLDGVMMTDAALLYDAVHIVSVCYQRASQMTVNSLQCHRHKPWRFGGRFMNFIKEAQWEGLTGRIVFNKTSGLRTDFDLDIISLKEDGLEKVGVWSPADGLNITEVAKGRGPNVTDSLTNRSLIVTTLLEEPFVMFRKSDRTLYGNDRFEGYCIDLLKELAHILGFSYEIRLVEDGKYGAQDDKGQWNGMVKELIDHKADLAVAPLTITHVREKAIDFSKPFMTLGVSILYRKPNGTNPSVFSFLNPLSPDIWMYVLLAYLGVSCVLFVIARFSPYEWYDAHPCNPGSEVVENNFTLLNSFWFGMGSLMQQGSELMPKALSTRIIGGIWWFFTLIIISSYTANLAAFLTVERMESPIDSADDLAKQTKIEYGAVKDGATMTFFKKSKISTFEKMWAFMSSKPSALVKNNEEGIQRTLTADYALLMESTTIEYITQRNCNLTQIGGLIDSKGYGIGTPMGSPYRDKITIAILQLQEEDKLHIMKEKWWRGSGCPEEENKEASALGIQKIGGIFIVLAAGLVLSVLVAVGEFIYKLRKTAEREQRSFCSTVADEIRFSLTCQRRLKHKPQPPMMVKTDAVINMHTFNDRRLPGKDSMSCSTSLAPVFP
Sequence of Metabotropic glutamate receptor 3 (Q14832 whole entry): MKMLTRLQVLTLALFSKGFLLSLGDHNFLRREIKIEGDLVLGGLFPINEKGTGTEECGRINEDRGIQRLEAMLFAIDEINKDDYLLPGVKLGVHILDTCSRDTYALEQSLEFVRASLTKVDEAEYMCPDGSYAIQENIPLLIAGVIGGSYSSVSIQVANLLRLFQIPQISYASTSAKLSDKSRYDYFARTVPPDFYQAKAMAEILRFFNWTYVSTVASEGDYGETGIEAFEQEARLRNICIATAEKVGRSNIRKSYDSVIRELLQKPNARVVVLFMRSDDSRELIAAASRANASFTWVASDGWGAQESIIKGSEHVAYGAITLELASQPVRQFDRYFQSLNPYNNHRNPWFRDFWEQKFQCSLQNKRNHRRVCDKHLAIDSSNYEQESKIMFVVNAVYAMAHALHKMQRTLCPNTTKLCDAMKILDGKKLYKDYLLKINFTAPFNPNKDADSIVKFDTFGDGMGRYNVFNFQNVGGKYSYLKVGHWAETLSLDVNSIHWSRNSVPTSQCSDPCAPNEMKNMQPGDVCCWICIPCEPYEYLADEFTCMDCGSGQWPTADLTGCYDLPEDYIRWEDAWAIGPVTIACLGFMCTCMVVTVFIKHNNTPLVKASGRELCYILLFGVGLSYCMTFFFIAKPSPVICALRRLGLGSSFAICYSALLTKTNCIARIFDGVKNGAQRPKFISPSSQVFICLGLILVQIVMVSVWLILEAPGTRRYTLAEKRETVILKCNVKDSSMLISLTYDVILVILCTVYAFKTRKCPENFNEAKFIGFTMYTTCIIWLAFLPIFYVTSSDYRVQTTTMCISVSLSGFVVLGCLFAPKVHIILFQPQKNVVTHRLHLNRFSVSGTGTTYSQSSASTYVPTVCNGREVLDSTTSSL
Sequence of Metabotropic glutamate receptor 4 (Q14833 whole entry): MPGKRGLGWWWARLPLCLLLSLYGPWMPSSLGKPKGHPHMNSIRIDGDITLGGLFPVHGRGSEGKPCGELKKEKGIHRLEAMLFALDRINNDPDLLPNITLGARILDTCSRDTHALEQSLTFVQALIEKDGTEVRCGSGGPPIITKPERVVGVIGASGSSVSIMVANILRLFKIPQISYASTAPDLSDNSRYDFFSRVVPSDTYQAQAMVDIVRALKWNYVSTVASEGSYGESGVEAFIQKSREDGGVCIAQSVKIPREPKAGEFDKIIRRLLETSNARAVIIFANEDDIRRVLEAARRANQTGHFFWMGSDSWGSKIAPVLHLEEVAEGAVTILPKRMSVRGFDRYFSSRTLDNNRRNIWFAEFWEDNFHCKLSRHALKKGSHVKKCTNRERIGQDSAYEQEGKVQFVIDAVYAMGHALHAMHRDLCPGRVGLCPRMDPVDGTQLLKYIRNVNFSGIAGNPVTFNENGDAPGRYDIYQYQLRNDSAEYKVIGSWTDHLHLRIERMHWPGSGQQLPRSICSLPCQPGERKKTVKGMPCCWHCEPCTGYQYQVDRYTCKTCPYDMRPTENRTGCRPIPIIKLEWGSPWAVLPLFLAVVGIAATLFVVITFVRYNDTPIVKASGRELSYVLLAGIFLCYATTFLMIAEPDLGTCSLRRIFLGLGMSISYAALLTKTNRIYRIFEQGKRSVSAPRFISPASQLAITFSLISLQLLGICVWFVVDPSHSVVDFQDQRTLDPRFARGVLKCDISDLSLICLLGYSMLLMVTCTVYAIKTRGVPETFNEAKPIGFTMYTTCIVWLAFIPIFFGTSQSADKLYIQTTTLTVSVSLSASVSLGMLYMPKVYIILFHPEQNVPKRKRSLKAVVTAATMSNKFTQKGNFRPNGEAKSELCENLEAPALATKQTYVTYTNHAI
Sequence of Metabotropic glutamate receptor 7 (Q14831 whole entry): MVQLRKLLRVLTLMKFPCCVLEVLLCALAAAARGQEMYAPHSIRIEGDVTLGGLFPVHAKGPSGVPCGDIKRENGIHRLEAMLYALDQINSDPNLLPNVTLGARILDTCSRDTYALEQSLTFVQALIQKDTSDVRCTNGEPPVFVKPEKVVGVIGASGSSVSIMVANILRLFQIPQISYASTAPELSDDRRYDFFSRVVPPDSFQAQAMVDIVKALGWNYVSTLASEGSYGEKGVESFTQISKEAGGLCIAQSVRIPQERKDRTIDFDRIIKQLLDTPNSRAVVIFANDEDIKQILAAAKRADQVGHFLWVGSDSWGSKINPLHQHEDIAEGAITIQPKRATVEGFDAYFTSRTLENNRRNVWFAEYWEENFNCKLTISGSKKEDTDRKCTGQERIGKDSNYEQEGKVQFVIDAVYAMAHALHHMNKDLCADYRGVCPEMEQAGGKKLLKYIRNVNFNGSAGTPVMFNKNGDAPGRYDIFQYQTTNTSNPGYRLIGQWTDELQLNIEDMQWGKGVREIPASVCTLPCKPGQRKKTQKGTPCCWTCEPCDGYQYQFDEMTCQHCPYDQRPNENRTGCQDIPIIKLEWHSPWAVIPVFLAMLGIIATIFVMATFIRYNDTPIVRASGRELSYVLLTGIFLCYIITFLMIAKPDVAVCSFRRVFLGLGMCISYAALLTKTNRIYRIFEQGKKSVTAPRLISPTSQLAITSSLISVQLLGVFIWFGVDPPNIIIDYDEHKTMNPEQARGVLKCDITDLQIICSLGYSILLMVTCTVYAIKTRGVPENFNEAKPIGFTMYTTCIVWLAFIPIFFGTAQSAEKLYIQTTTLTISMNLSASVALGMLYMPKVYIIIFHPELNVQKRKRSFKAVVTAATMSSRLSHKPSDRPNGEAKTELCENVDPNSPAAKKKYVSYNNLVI
Sequence of Metabotropic glutamate receptor 2 (Q14416 whole entry): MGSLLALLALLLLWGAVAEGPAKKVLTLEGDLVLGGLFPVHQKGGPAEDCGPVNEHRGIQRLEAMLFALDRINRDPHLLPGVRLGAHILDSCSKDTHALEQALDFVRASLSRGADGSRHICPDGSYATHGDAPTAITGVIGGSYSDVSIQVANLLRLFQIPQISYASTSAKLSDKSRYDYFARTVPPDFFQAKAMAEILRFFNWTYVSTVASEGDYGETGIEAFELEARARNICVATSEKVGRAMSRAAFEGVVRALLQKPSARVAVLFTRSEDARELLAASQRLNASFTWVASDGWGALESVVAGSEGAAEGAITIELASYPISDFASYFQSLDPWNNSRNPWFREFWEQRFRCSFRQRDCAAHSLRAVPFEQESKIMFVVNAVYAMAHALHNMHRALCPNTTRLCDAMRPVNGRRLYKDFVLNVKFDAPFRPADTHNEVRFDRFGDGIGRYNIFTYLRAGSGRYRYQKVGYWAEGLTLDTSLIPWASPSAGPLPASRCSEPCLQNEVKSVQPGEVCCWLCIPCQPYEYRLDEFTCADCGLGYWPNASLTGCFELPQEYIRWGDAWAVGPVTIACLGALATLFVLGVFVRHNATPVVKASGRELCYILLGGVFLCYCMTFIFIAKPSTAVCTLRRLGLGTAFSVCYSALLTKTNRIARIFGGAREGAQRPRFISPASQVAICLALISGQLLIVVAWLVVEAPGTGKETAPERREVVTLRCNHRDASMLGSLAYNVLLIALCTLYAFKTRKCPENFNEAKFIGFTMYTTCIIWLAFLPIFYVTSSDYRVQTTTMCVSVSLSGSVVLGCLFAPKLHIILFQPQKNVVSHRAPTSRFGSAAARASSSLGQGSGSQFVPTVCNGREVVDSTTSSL

In the case of `COc1cccc(C[C@@H](C[C@H](N)C(=O)O)C(=O)O)c1`, the IC50 [1] is reported as 9.28 µM.

With `N[C@@H](C[C@H](CCCCCc1ccccc1)C(=O)O)C(=O)O` the IC50 [1] was 2.49 µM.

With `N[C@@H](C[C@@H](CCCCc1ccccc1)C(=O)O)C(=O)O` the IC50 [1] was > 100 µM.

For `N[C@@H](C[C@H](Cc1ccc2ccccc2c1)C(=O)O)C(=O)O`, the IC50 [1] was 3.33 µM.

`N[C@@H](C[C@H](CCCCC(c1ccccc1)c1ccccc1)C(=O)O)C(=O)O` showed an IC50 [1] of 3.4 µM.

Work on `N[C@@H](C[C@@H](CCCc1ccccc1)C(=O)O)C(=O)O` yielded an IC50 [1] of 21.1 µM.

For `Cc1ccc(C[C@@H](C[C@H](N)C(=O)O)C(=O)O)cc1`, the IC50 [1] was 4.6 µM.

In the case of `N[C@@H](C[C@H](CCC(c1ccccc1)c1ccccc1)C(=O)O)C(=O)O`, the IC50 [2] is reported as 1.16 µM, the IC50 [3] is reported as 39.3 µM and the IC50 [4] is reported as 14.5 µM.

`N[C@@H](C[C@H](CCCc1ccccc1)C(=O)O)C(=O)O` gave an IC50 [2] of 1.84 µM, an IC50 [3] of 9.2 µM and an IC50 [4] of 34 µM. The IC50 [1] was 1.84 µM.

In the case of `N[C@@H](C[C@H](Cc1ccc(C(F)(F)F)cc1)C(=O)O)C(=O)O`, the IC50 [1] is reported as 3.16 µM.

Work on `N[C@@H](C[C@H](CC1CCC(c2ccccc2)(c2ccccc2)CC1)C(=O)O)C(=O)O` yielded an IC50 [1] of 1.4 µM.

`N[C@@H](C[C@H](CC1CCC(c2ccccc2)CC1)C(=O)O)C(=O)O` (some centres not stated) gave an IC50 [1] of 3.2 µM.

Molecule `N[C@@H](C[C@H](CCCCc1ccccc1)C(=O)O)C(=O)O` has an IC50 [1] of 4.69 µM.

In the case of `N[C@@H](C[C@H](CCCC(c1ccccc1)c1ccccc1)C(=O)O)C(=O)O`, the IC50 [4] is reported as > 100 µM, the IC50 [5] is reported as 30 µM and the IC50 [6] is reported as > 300 µM. For the same molecule, the IC50 [7] was > 300 µM, the IC50 [8] was > 300 µM and the IC50 [9] was 50 µM. The IC50 [10] was > 300 µM and the IC50 [11] was > 300 µM.

In the case of `N[C@@H](C[C@H](CC(c1ccccc1)c1ccccc1)C(=O)O)C(=O)O`, the IC50 [2] is reported as 0.38 µM, the IC50 [3] is reported as > 100 µM and the IC50 [4] is reported as > 100 µM. The IC50 [5] was 6.1 µM, the IC50 [6] was > 300 µM and the IC50 [7] was > 300 µM. For the same molecule, the IC50 [8] was > 300 µM, the IC50 [9] was 18 µM and the IC50 [10] was > 300 µM. For the same molecule, the IC50 [11] was > 300 µM.

Molecule `N[C@@H](C[C@H](Cc1ccccc1)C(=O)O)C(=O)O` has an IC50 [1] of 8.99 µM.

For `N[C@@H](C[C@H](CCc1ccccc1)C(=O)O)C(=O)O`, the IC50 [1] was 4.65 µM.

With `N[C@@H](C[C@@H](Cc1ccc(C(F)(F)F)cc1)C(=O)O)C(=O)O` (single isomer, unassigned) the IC50 [1] was > 100 µM.

For `N[C@@H](C[C@@H](Cc1ccc2ccccc2c1)C(=O)O)C(=O)O` (single isomer, unassigned), the IC50 [1] was 8.82 µM.

Work on `Cc1ccc(C[C@H](C[C@H](N)C(=O)O)C(=O)O)cc1` (single isomer, unassigned) yielded an IC50 [1] of 7.85 µM.

For `N[C@@H](C[C@@H](CCc1ccccc1)C(=O)O)C(=O)O` (single isomer, unassigned), the IC50 [1] was 14.5 µM.
